Experimental data: patent US7300770B2, “Detection of microbe contamination on elastomeric articles” (Kimberly-Clark Worldwide, Inc., priority 2004, dated 2007)

What was measured:
[1] = Reichardt's dye and TMB coated towel exposed to dilute bleach; settings: towel coated with mixture of Reichardt's dye and TMB
aged chicken juice [2] = experiment: Comparative dyes dropped onto aged chicken juice on paper towel; settings: aged chicken juice on SCOTT paper towel
aged chicken juice [3] = experiment: N-docosyl merocyanine dye on cotton fabric spotted with aged chicken juice
budgie feces suspension = experiment: N-methyl merocyanine coated towel exposed to budgerigar feces suspension; settings: tap water control
Text: Budgerigar feces was collected from a caged pet budgie, and shaken in approximately 10 milliliters of Atlanta city domestic tap water.

[4] = test system: aged urine (approximately 1x10^5 CFU/milliliters); experiment: N-methyl merocyanine coated towel exposed to aged female human urine; settings: aged urine filtered through 0.2-micron filter

| Compound | Color change on dropping dye onto aged chicken juice (aged chicken juice [2]) | also measured |
| --- | --- | --- |
| Cc1cc(-c2cc(C)c(N)c(C)c2)cc(C)c1N [TMB] |  | Color response to dilute bleach solution [1]: turning orange/yellow color |
| Cc1ccc(Nc2ccc(Nc3ccc(C)cc3S(=O)(=O)[O-])c3c2C(=O)c2c(O)ccc(O)c2C3=O)c(S(=O)(=O)[O-])c1.[Na+].[Na+] [Cl Acid Green 41] | No color changes were observed |  |
| CCN(CC)c1ccc2c(-c3ccc(S(=O)(=O)[O-])cc3S(=O)(=O)[O-])c3ccc(=[N+](CC)CC)cc-3oc2c1.[Na+] [Cl Acid Red 52] | No color changes were observed |  |
| CCCCCCCCCCCCCCCCCCCCCC[n+]1ccc(C=Cc2ccc(O)cc2)cc1.[Br-] |  | Color change on spotting aged chicken juice (aged chicken juice [3]; orange-yellow dye spots on cotton fabric): color change to very pale yellow; Color change on spotting aged chicken juice (aged chicken juice [3]; pinkish-orange areas (dye + NaOH soln.)): pinkish-orange to very pale yellow |
| O=C([O-])C1=NN(c2ccc(S(=O)(=O)[O-])cc2)C(=O)C1N=Nc1ccc(S(=O)(=O)[O-])cc1.[Na+].[Na+].[Na+] (centres unmarked) [Acid Yellow 23] | No color changes were observed |  |
| O=C1/C(=C2\Nc3ccc(S(=O)(=O)[O-])cc3C2=O)Nc2ccc(S(=O)(=O)[O-])cc21.[Na+].[Na+] [Cl Acid Blue 74] | No color changes were observed |  |
| COc1cc(/C=C/c2cc[n+](C)cc2)ccc1[O-] [N-methyl merocyanine dye] |  | Color change of coated towel (budgie feces suspension): remained orange; Color change of coated towel [4]: did not cause a color change |
| CC(=O)Nc1ccc(/N=N/c2c(N)ccc3cc(S(=O)(=O)[O-])cc(O)c23)c(S(=O)(=O)[O-])c1.[Na+].[Na+] [Acid Red 37] | No color changes were observed |  |
| Cc1ccc(Nc2ccc(Nc3ccc(C)cc3S(=O)(=O)[O-])c3c2C(=O)c2ccccc2C3=O)c(S(=O)(=O)[O-])c1.[Na+].[Na+] [Cl Acid Green 25] | No color changes were observed |  |
